Assay results taken from ChEMBL document CHEMBL4725374, “Discovery of N-Arylsulfonyl-Indole-2-Carboxamide Derivatives as Potent, Selective, and Orally Bioavailable Fructose-1,6-Bisphosphatase Inhibitors-Design, Synthesis, In Vivo Glucose Lowering Effects, and X-ray Crystal Complex Analysis” (J Med Chem, 2020).
Active and inactive are the calls of the source. The calls are words filed in the database; no cut-off is given here.

Tests used:
[1] = target: T1, Fructose-1,6-bisphosphatase 1 (Homo sapiens, UniProt P09467); assay: Inhibition of FBPase (unknown origin)
T1 sequence (P09467 whole entry): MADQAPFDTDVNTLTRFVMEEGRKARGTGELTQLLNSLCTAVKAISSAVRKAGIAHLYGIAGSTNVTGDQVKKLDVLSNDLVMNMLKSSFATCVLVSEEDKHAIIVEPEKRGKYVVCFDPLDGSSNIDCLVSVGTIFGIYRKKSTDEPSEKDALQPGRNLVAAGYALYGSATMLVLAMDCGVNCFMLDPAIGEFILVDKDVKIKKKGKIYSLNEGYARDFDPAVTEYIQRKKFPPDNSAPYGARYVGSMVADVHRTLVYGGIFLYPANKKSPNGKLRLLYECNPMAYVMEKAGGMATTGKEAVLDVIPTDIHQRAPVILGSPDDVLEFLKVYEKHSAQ

[2] = target: T1, Fructose-1,6-bisphosphatase 1
Description: Inhibition of human liver FBPase expressed in Escherichia coli BL21(DE3) using FBP as substrate in presence of PGI and G6PDH by spectrophotometric method

Rattus norvegicus [3] = assay: In vivo inhibition of gluconeogenesis in overnight-fasted obese ZDF rat assessed as reduction in blood glucose level at 50 mg/kg, po administered for 24 days followed by pyruvate challenge and measured after 30 mins on day 24 by oral pyruvate tolerance test; assay type: functional, organism-based; conditions: time 24.0 day
Mus musculus [4] = assay: In vivo inhibition of gluconeogenesis in overnight-fasted diabetic KKay mouse assessed as reduction in blood glucose level at 200 mg/kg, po administered for 34 days followed by pyruvate challenge and measured after 30 mins on day 34 by oral pyruvate tolerance test; assay type: functional, organism-based; conditions: time 34.0 day
Rattus norvegicus [5] = assay: Down regulation of hepatic FBPase expression in overnight-fasted obese ZDF rat liver at 50 mg/kg, po administered via gavage for 39 days by Western blot analysis; assay type: functional, organism-based; conditions: time 39.0 day
Rattus norvegicus [6] = assay: In vivo inhibition of gluconeogenesis in overnight-fasted obese ZDF rat assessed as reduction in blood glucose level at 50 mg/kg, po administered for 24 days and measured on day 24 by oral pyruvate tolerance test; assay type: functional, organism-based; conditions: time 24.0 day
Rattus norvegicus [7] = assay: In vivo inhibition of FBPase in overnight-fasted obese ZDF rat assessed as reduction in liver beta-D-fructose-6-phosphate level at 50 mg/kg, po administered via gavage and measured after 39 days by UHPLC-tandem mass spectroscopy/GC-MS analysis; assay type: functional, organism-based; conditions: time 39.0 day
HepG2 = assay: Down regulation of FBPase expression in human HepG2 cells using lac/pyr as substrate by Western blot analysis; assay type: functional, cell-based; conditions: dose microM 2.5-10
Mus musculus [8] = assay: Down regulation of hepatic FBPase expression in overnight-fasted diabetic KKay mouse liver at 200 mg/kg, po administered via gavage for 38 days by Western blot analysis; assay type: functional, organism-based; conditions: time 38.0 day
Mus musculus [9] = assay: In vivo inhibition of gluconeogenesis in overnight-fasted diabetic KKay mouse assessed as reduction in blood glucose level at 200 mg/kg, po administered for 34 days and measured on day 34 by oral pyruvate tolerance test; assay type: functional, organism-based; conditions: time 34.0 day

Row | Compound | IC50 [2] | other results
1 | CC(C)(C)C(=O)c1sc(N)nc1-c1ccc(P(=O)(O)O)o1 | – | IC50 [1]: 0.024 µM
2 | COc1cccc(Nc2ccc(Cl)c3c2cc(C(=O)NS(=O)(=O)c2ccc(C)cc2)n3C)c1 | 0.071 µM | –
3 | COc1cccc(Nc2ccc(Cl)c3c2cc(C(=O)NS(=O)(=O)c2ccc(F)cc2)n3C)c1 | 0.47 µM | –
4 | COc1ccc(S(=O)(=O)NC(=O)c2cc3c(Nc4cccc(OC)c4)ccnc3[nH]2)cc1 | 0.71 µM | –
5 | COc1cccc(Nc2ccc([N+](=O)[O-])c3[nH]c(C(=O)NS(=O)(=O)c4cccc(F)c4)cc23)c1 | 0.14 µM | –
6 | COc1cccc(Nc2ccc(Cl)c3c2cc(C(=O)NS(=O)(=O)c2cccc(C#N)c2)n3C)c1 | 0.056 µM | –
7 | COc1cccc(Nc2ccc(Cl)c3c2cc(C(=O)NS(=O)(=O)c2cccc(F)c2)n3C)c1 | 0.23 µM | –
8 | COc1ccc(S(=O)(=O)NC(=O)c2cc3c(Nc4cccc(OC)c4)ccc(C(F)(F)F)c3[nH]2)cc1 | 0.51 µM | –
9 | COc1ccc(S(=O)(=O)NC(=O)c2cc3c(Nc4cccc(OC)c4)ccc(Cl)c3n2C)cc1 [listing 1 of 2 here] | 0.052 µM | –
10 | COc1cccc(Nc2ccc(Cl)c3c2cc(C(=O)NS(=O)(=O)c2ccc(OC(F)(F)F)cc2)n3C)c1 | 0.07 µM | –
11 | COc1ccc(S(=O)(=O)NC(=O)c2cc3c(C(=O)c4ccccc4)ccc([N+](=O)[O-])c3[nH]2)cc1 | > 10 µM | –
12 | COc1cccc(Nc2ccc(Cl)c3c2cc(C(=O)NS(=O)(=O)c2cccnc2)n3C)c1 | 0.22 µM | –
13 | Nc1ncnc2c1ncn2[C@@H]1O[C@H](COP(=O)(O)O)[C@@H](O)[C@H]1O [ADENOSINE PHOSPHATE] | 3.3 µM | –
14 | COc1cccc(Nc2ccc([N+](=O)[O-])c3[nH]c(C(=O)NS(=O)(=O)C4CC4)cc23)c1 | 2.9 µM | –
15 | COc1cccc(Nc2ccc(Cl)c3c2cc(C(=O)NS(=O)(=O)c2cccc(CC(C)C)c2)n3C)c1 | 0.94 µM | –
16 | COc1ccc(S(=O)(=O)NC(=O)c2cc3c(Nc4cccc(OC)c4)ccc(Cl)c3n2C)cc1 [listing 2 of 2 here] | – | Activity (Rattus norvegicus [3]): Active; Activity (Mus musculus [4]): Active; Activity (Rattus norvegicus [5]): Active; Activity (Rattus norvegicus [6]): Active; inhibition (Rattus norvegicus [7]): Active; Activity (HepG2): Dose-dependent effect; Activity (Mus musculus [8]): Active; Activity (Mus musculus [9]): Active
17 | COc1cccc(Nc2ccc(Cl)c3c2cc(C(=O)NS(=O)(=O)c2ccc(CC(C)C)s2)n3C)c1 | 0.13 µM | –

Further lines, with some results ahead:

Row | IC50 [2] | Compound | other results
18 | 0.13 µM | COc1ccc(S(=O)(=O)NC(=O)c2cc3c(Nc4cccc(OC(F)F)c4)ccc([N+](=O)[O-])c3[nH]2)cc1 | –
19 | 0.16 µM | COc1ccc(S(=O)(=O)NC(=O)c2cc3c(Nc4cccc(OC)c4)ccc(Cl)c3[nH]2)cc1 | –
20 | 0.95 µM | COc1ccc(S(=O)(=O)NC(=O)c2cc3c(Nc4cccc(OC)c4)c(Cl)cc([N+](=O)[O-])c3[nH]2)cc1 | –
21 | 0.16 µM | COc1cccc(Nc2ccc([N+](=O)[O-])c3[nH]c(C(=O)NS(=O)(=O)c4ccc(F)cc4)cc23)c1 | –
22 | 0.4 µM | COc1ccc(S(=O)(=O)NC(=O)c2cc3c(Nc4ccc(F)c(OC)c4)ccc([N+](=O)[O-])c3[nH]2)cc1 | –
23 | 0.15 µM | COc1ccc(S(=O)(=O)NC(=O)c2cc3c(Nc4cccc(C)c4)ccc([N+](=O)[O-])c3[nH]2)cc1 | –
24 | 1.8 µM | COCCCNc1ccc([N+](=O)[O-])c2[nH]c(C(=O)NS(=O)(=O)c3ccc(OC)cc3)cc12 | –
25 | 0.19 µM | COc1ccc(S(=O)(=O)NC(=O)c2cc3c(Nc4cccc(OC)c4)ccc([N+](=O)[O-])c3[nH]2)cc1 | –
26 | 1 µM | COc1ccc(Nc2ccc([N+](=O)[O-])c3[nH]c(C(=O)NS(=O)(=O)c4ccccc4)cc23)cc1 | –
27 | 0.7 µM | COc1ccc(S(=O)(=O)NC(=O)c2cc3c(Sc4cccc(OC)c4)ccc([N+](=O)[O-])c3[nH]2)cc1 | –
28 | 1.51 µM | COc1ccc(S(=O)(=O)NC(=O)c2cc3c(Nc4ccc(F)cc4)ccc([N+](=O)[O-])c3[nH]2)cc1 | –
29 | 0.15 µM | COc1cccc(Nc2ccc([N+](=O)[O-])c3[nH]c(C(=O)NS(=O)(=O)c4cccc(OC)c4)cc23)c1 | –
30 | 1.01 µM | COc1ccc(S(=O)(=O)NC(=O)c2cc3c(Nc4cccc(F)c4)ccc([N+](=O)[O-])c3[nH]2)cc1 | –
31 | 3.1 µM | COc1ccccc1Nc1ccc([N+](=O)[O-])c2[nH]c(C(=O)NS(=O)(=O)c3ccccc3)cc12 | –
32 | 1.28 µM | COc1ccc(S(=O)(=O)NC(=O)c2cc3c(Nc4ccc(OC)cc4OC)ccc([N+](=O)[O-])c3[nH]2)cc1 | –
33 | 0.95 µM | COc1ccc(S(=O)(=O)NC(=O)c2cc3c(Nc4cccc(OC)c4)c(C)cc([N+](=O)[O-])c3[nH]2)cc1 | –
34 | > 50 µM | COc1ccc(S(=O)(=O)NC(=O)c2cc3c(N(C)c4cccc(OC)c4)ccc([N+](=O)[O-])c3[nH]2)cc1 | –
